{"source": "patent EP0314302A2", "about": "“Herbicidal o-carbomethoxy-sulfonylureas” (E.I. DU PONT DE NEMOURS AND COMPANY, priority 1987, dated 1989)", "key": {"Sugarcane": {"tested_on": "Sugarcane", "test": "Test 5 sugarcane injury and weed control, postemergence", "format": "in vivo, Saccharum spp.", "conditions": "scale 0-100", "method": "Sugarcane (Saccharum spp.) cuttings which had been pre-sprouted were planted in 15-cm plastic pots. Narrowleaf panicum (Panicum maximum), large crabgrass (Digitaria sanguinalis), guineagrass (P. maximum) and itchgrass (Rottboellia exaltata) were seeded in individual 15-cm plastic pots.\nThe pots were treated postemergence when the plants had 3 to 4 leaves with 2 to 3 tillers with Compound I formulated in a non-phytotoxic carrier made up of acetone-humectant-water-surfactant (22:1:1:0.05 v/v). The degree of crop injury and weed control was visually rated 27 days after treatment (DAT). Plant injury ratings are based on the scale of 0 to 100 where 0 = no effect, 20 = minimal injury and 100 = complete control."}, "Lentils": {"tested_on": "Lentils", "test": "Test 7 postemergence", "format": "in vivo", "conditions": "scale 0-100", "method": "(§1) Individual 11.4-cm plastic pots filled with planting medium were seeded with rape, wild radish (Raphanus raphanistruna). tansy mustard (Descurainia pinnata), ball mustard (Neslia paniculata), black mustard (Brassica nigra), yellow mustard, brown mustard, lentils, safflower, flax, sunflower, peanut, vetch, alfalfa, field bean, pea, violet (Viola spp), Kochia (Kochia spp), Russian thistle (Salsola spp), Matricaria spp, groundsel (Senecio spp), shepherdspurse (Capsella bursa-pastoris), nightshade (Solanum spp), sowthistle (Sonchus spp), sugar beet, wheat, \"Bonanza\" barley and \"Morex\" barley, Kentucky bluegrass (Poa pratensis), red clover (Trifolium pratense), dandelion (Taraxacum spp) and buckhorn plantain (Plantago lanceolata).\n(§2) Plants were treated postemergence with the compound formulated with a non-phytotoxic carrier. Plants were visually rated 18 days after treatment (DAT). Response ratings were based on the scale of 0 to 100 where 0 = no effect, 20 = minimal injury and 100 = complete control."}, "Morex barley": {"tested_on": "Morex barley", "test": "Test 7 postemergence", "format": "in vivo", "conditions": "scale 0-100", "method": "as §1, §2"}, "Pea": {"tested_on": "Pea", "test": "Test 7 postemergence", "format": "in vivo", "conditions": "scale 0-100", "method": "as §1, §2"}, "Vetch": {"tested_on": "Vetch", "test": "Test 7 postemergence", "format": "in vivo", "conditions": "scale 0-100", "method": "as §1, §2"}, "Sheperdspurse": {"tested_on": "Sheperdspurse", "test": "Test 7 postemergence", "format": "in vivo, Capsella bursa-pastoris", "conditions": "scale 0-100", "method": "as §1, §2"}, "Nightshade": {"tested_on": "Nightshade", "test": "Test 7 postemergence", "format": "in vivo, Solanum spp", "conditions": "scale 0-100", "method": "as §1, §2"}, "Sowthistle": {"tested_on": "Sowthistle", "test": "Test 7 postemergence", "format": "in vivo, Sonchus spp", "conditions": "scale 0-100", "method": "as §1, §2"}, "Large Crabgrass": {"tested_on": "Large Crabgrass", "test": "Test 9 postemergence", "format": "in vivo, Digitaria sanguinalis", "conditions": "16 g/ha, scale 0-100", "method": "Plastic windowsill pots containing planting medium were seeded with bahiagrass, bindweed (Convolvulus spp), guinea grass (Panicum maximum), large crabgrass (Digitaria sanguinalis) and pigweed (Amaranthus spp). Individual 15-cm plastic pots contained sandbur (Cenchrus echinatus), Mikania cordata, Boston fern (Nephrolepis exalata), quackgrass (Agropyron repens), elephantgrass (Pennisetum purpureum) and sowthistle (Sonchus spp) plants.\nPlants were treated postemergence with Compound I formulated in a non-phytotoxic solvent. Plants were visually rated 22 days after treatment (DAT). Injury and weed control ratings were based on the scale of 0 to 100 where 0 = no effect, 20 = minimal control and 100 = complete control."}, "Wild oats": {"tested_on": "Wild oats", "test": "Test 10 postemergence safety to crops and weed control", "format": "in vivo, Avena fatua", "conditions": "16 g/ha, scale 0-100", "method": "The object of these tests was to evaluate the compound of this invention for postemergence safety to crops and weed control. Seedling and budded Macedine grapes were grown in 11.4-cm pots. Flax, green foxtail (Setaria viridis), \"Morex\" barley, wild oats (Avena fatua), \"Era\" wheat, annual ryegrass (Lolium multiflorum), wild radish (Raphanus raphanistrum), rape, sunflower, chickweed (Stellaria media) and wild buckwheat (Polygonum convolvulus) were seeded in windowsill pots.\nThe plants were sprayed postemergence with Compound I in a non-phytotoxic solvent. Plants were visually rated 15 and 27 days after treatment (DAT). Injury and weed control ratings were based on the scale of 0 to 100 where 0 = no effect, 20 minimal control and 100 = complete control."}, "Sandbur [1]": {"tested_on": "Sandbur", "test": "Test 11 citrus pots, preemergence to the weeds", "format": "in vivo, Cenchrus echinatus", "conditions": "Preemergence 32 g/ha; 0.25% X-77 surfactant; scale 0-100", "method": "(§3) Budded citrus seedlings were planted in 30-liter plastic pots which were also seeded with sandbur, guineagrass, narrowleaf panicum, common ragweed, yellow nutsedge, purple nutsedge and bindweed. Compound I was applied preemergence and postemergence to the weeds. Treatments were sprayed to simulate the trunk-to-trunk herbicide application method used in some citrus groves. The compound was also applied postemergence to weeds grown in windowsill flats. The flats were filled with planting medium and seeded with morningglory (Ipomoea spp.). purple nutsedge (Cyperus rotundus), pigweed (Amaranthus spp.), bindweed (Convolvulus spp.), narrowleaf panicum (Panicum maximum), common ragweed (Ambrosia artemisiifolia), sandbur (Cenchrus echinatus), itchgrass (Rottboellia exaltata), johnsongrass (Sorghum halepense), guineagrass (Panicum maximum), smooth crabgrass (Digitaria ischaemum), broadleaf signalgrass (Brachiaria platyphylla), bermudagrass (Cynodon dactylon), goosegrass (Eleusine indica), large crabgrass (Digitaria sanguinalis) and yellow nutsedge (Cyperus esculentus).\n(§4) The compound was formulated and sprayed with 0.25% X-77 surfactant in water. Plants were visually rated 21 and 29 days after treatment and compared with appropriate controls. Injury ratings were based on the scale of 0 to 100, where 0 indicates no effect, 20 indicates minimum effect and 100 indicates complete control. […]"}, "Sandbur [2]": {"tested_on": "Sandbur", "test": "Test 11 citrus pots, postemergence to the weeds", "format": "in vivo, Cenchrus echinatus", "conditions": "Postemergence 32 g/ha, 0.25% X-77 surfactant, scale 0-100", "method": "as §3, §4"}, "Purple nutsedge [3]": {"tested_on": "Purple nutsedge", "test": "Test 11 citrus pots, postemergence to the weeds", "format": "in vivo, Cyperus rotundus", "conditions": "Postemergence 32 g/ha, 0.25% X-77 surfactant, scale 0-100", "method": "as §3, §4"}, "Purple nutsedge [4]": {"tested_on": "Purple nutsedge", "test": "Test 11 windowsill flats, postemergence", "format": "in vivo, Cyperus rotundus", "conditions": "Postemergence 32 g/ha, 0.25% X-77 surfactant, scale 0-100", "method": "as §3, §4"}}, "data": [{"molecule": "COC(=O)c1cccnc1S(=O)(=O)NC(=O)Nc1nc(OC)cc(OC)n1", "note": "[Compound I, 2-[[(4,6-dimethoxypyrimidin-2-yl)aminocarbonyl]aminosulfonyl]-3-pyridinecarboxylic acid, methyl ester]", "values": [{"measurement": "Plant Injury Rating 27 DAT", "setting": "Sugarcane; 8 g/ha", "result": 10}, {"measurement": "Plant Injury Rating 27 DAT", "setting": "Sugarcane; 16 g/ha", "result": 20}, {"measurement": "Plant Injury Rating 27 DAT", "setting": "Sugarcane; 32 g/ha", "result": 20}, {"measurement": "Plant Injury Rating 27 DAT", "setting": "Sugarcane; 64 g/ha", "result": 30}, {"measurement": "Plant Injury Rating 18 DAT", "setting": "Lentils; 16 g/ha", "result": 100}, {"measurement": "Plant Injury Rating 18 DAT", "setting": "Lentils; 32 g/ha", "result": 100}, {"measurement": "Plant Injury Rating 18 DAT", "setting": "Morex barley; 16 g/ha", "result": 90}, {"measurement": "Plant Injury Rating 18 DAT", "setting": "Morex barley; 32 g/ha", "result": 100}, {"measurement": "Plant Injury Rating 18 DAT", "setting": "Pea; 16 g/ha", "result": 100}, {"measurement": "Plant Injury Rating 18 DAT", "setting": "Pea; 32 g/ha", "result": 100}, {"measurement": "Plant Injury Rating 18 DAT", "setting": "Vetch; 16 g/ha", "result": 100}, {"measurement": "Plant Injury Rating 18 DAT", "setting": "Vetch; 32 g/ha", "result": 100}, {"measurement": "Plant Injury Rating 18 DAT", "setting": "Sheperdspurse; 16 g/ha", "result": 100}, {"measurement": "Plant Injury Rating 18 DAT", "setting": "Sheperdspurse; 32 g/ha", "result": 100}, {"measurement": "Plant Injury Rating 18 DAT", "setting": "Nightshade; 16 g/ha", "result": 50}, {"measurement": "Plant Injury Rating 18 DAT", "setting": "Nightshade; 32 g/ha", "result": 60}, {"measurement": "Plant Injury Rating 18 DAT", "setting": "Sowthistle; 16 g/ha", "result": 100}, {"measurement": "Plant Injury Rating 18 DAT", "setting": "Sowthistle; 32 g/ha", "result": 100}, {"measurement": "Plant Injury Rating 22 DAT", "setting": "Large Crabgrass", "result": 60}, {"measurement": "Plant Injury Rating 15 DAT", "setting": "Wild oats", "result": 100}, {"measurement": "Injury ratings", "setting": "Sandbur [1]", "result": 100}, {"measurement": "Injury ratings", "setting": "Sandbur [2]", "result": 100}, {"measurement": "Injury ratings", "setting": "Purple nutsedge [3]", "result": 90}, {"measurement": "Injury ratings", "setting": "Purple nutsedge [4]", "result": 100}]}]}
